Target: T1, RORc (Homo sapiens, UniProt P51449)
T1 sequence (P51449 269-508 limits assumed): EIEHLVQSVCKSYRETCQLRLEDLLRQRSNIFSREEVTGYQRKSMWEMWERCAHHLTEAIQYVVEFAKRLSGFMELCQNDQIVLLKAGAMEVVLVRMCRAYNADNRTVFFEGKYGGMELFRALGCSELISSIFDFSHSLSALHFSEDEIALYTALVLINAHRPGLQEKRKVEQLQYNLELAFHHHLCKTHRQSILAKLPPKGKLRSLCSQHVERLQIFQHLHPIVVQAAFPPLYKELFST
Experiment: In vitro RORc ligand binding assay (25-[3H]hydroxycholesterol displacement)
Settings: IC50, IC50 values for RORc; unit inferred
Description: This assay was used to determine a compound's potency in inhibiting activity of RORc by determining, Kiapp, IC50, or percent inhibition values.
On day of the assay, 100 uL of 0.05% CHAPS (in deionized H2O) was added to all wells of the GFB Unifilter plate and allowed soak for 1 h. A wash buffer of 50 mM HEPES (pH 7.4), 150 mM NaCl, and 5 mM MgCl2 was prepared to wash the filter plate. To prepare an assay buffer, BSA was added to the wash buffer to reach 0.01% and DTT was added to reach 1 mM.
The 20× compound stocks were diluted in DMSO with Assay Buffer 4-fold to reach 5× the final test concentration in 25% DMSO (10 uL compound+30 uL Assay Buffer). Solutions were mixed by aspiration several times with a pipette set on 50 uL volume. For the assay, 10 uL of 5× compound stock solutions in 25% DMSO were added to the assay plate in duplicate.
For two point screening, 10 mM stock compound solutions were diluted in DMSO to obtain 200 uM (20× the high test concentration) and then diluted 10-fold further to reach 20 uM (20× the low test concentration). The 20× stocks were diluted 4-fold with Assay Buffer (10 uL compound+30 uL Assay Buffer) to reach 5× the test concentrations (50 uM and 5 uM) and 10 uL were added to two assay plates for the duplicate wells. With each concentration tested on 2 plates, each set of 80 compounds used 4 assay plates (1 uM and 10 uM, with n=2).
For 25-hydroxycholesterol in 25% DMSO/75% Assay Buffer; 10 uL per well was used for NSB samples. Wells for Total Binding and No Receptor sample determination contained 10 uL of 25% DMSO/75% Assay Buffer per well.
Add 20 uL to all wells to reach 6 nM final in the assay.
Stock receptor solution was diluted in assay buffer to obtain 1.5 ug/mL in Assay Buffer. 20 uL was added to all wells. For No R samples, 20 uL Assay Buffer was substituted for receptor solution.
Assay plates were 96-well polypropylene V-bottom plates. 10 uL of 5× compound in 25% DMSO/75% Assay Buffer was added to Test wells. 10 uL of 25% DMSO/75% Assay Buffer was added to Total Binding or No Receptor wells. 10 uL of 5 uM 25-hydroxycholesterol in 25% DMSO/75% Assay Buffer was added to NSB wells. […] 20 uL of 1.5 ug/mL RORc receptor was added to wells (or 40 uL Assay Buffer to No R wells). Following addition to the wells, the plates were incubated 3 h at 25° C.
Using a Packard Filtermate Harvester, the filter plate were washed 4 times following transfer of the incubated samples. Plates were dry-filtered completely (2 h at 50° C. or overnight at room temperature). 50 uL Microscint 0 was added to all wells and read on Topcount protocol Inverted.
For NSB wells, 1 uM 25-hydroxycholesterol was also present.

Row | IC50 [nM] | SMILES
1 | 32.1 | C[C@H]1CC[C@H](c2ccccc2)S(=O)(=O)N1Cc1ccc(C2(C(C)(C)O)CCOCC2)cc1F [Compound 76, 2-[4-[3-fluoro-4-[[(3S,6R)-3-methyl-1,1-dioxo-6-phenyl-thiazinan-2-yl]methyl]phenyl]tetrahydropyran-4-yl]propan-2-ol]
2 | 14.8 | CNC(=O)CCC1(c2ccc(CN3[C@@H](C)CC[C@H](c4ccccc4)S3(=O)=O)c(F)c2)CCOCC1 [Compound 88, 3-[4-[3-fluoro-4-[[(3S,6R)-3-methyl-1,1-dioxo-6-phenyl-thiazinan-2-yl]methyl]phenyl]tetrahydropyran-4-yl]-N-methyl-propanamide]
3 | 190 | COC(=O)C1(c2ccc(CN3[C@@H](C)CC[C@H](c4ccccc4)S3(=O)=O)c(F)c2)CCOCC1 [Compound 39, 4-[3-Fluoro-4-((3S,6R)-3-methyl-1,1-dioxo-6-phenyl-[1,2]thiazinan-2-ylmethyl)-phenyl]-tetrahydro-pyran-4-carboxylic acid methyl ester]
4 | 14.5 | COC1(OC)CC(C#N)(c2ccc(CN3[C@@H](C)CC[C@H](c4ccccc4)S3(=O)=O)c(F)c2)C1 [Compound 160, 1-[3-fluoro-4-[[(3S,6R)-3-methyl-1,1-dioxo-6-phenyl-thiazinan-2-yl]methyl]phenyl]-3,3-dimethoxy-cyclobutanecarbonitrile]
5 | 55.3 | C[C@H]1CC[C@H](c2ccccc2)S(=O)(=O)N1Cc1cc(F)c(C2(N[S+]([O-])C(C)(C)C)COC2)cc1F (stereo partly drawn) [Compound 191, N-[3-[2,5-difluoro-4-[[(3S,6R)-3-methyl-1,1-dioxo-6-phenyl-thiazinan-2-yl]methyl]phenyl]oxetan-3-yl]-2-methyl-propane-2-sulfinamide]
6 | 74.9 | C[C@H]1CC[C@H](c2ccccc2)S(=O)(=O)N1Cc1ccc(C2(CC#N)COC2)cc1F [Compound 105, 2-[3-[3-fluoro-4-[[(3S,6R)-3-methyl-1,1-dioxo-6-phenyl-thiazinan-2-yl]methyl]phenyl]oxetan-3-yl]acetonitrile]
7 | 8 | C[C@H]1CC[C@H](c2ccccc2)S(=O)(=O)N1Cc1ccc(C2(OCC(N)=O)COC2)cc1F [Compound 186, 2-[3-[3-fluoro-4-[[(3S,6R)-3-methyl-1,1-dioxo-6-phenyl-thiazinan-2-yl]methyl]phenyl]oxetan-3-yl]oxyacetamide]
8 | 67 | COCC1(c2ccc(CN3[C@@H](C)CC[C@H](c4ccccc4)S3(=O)=O)c(F)c2)CCOCC1 [Compound 90, (3S,6R)-2-[[2-fluoro-4-[4-(methoxymethyl)tetrahydropyran-4-yl]phenyl]methyl]-3-methyl-6-phenyl-thiazinane 1,1-dioxide]
9 | 27.2 | C[C@H]1CC[C@H](c2ccccc2)S(=O)(=O)N1Cc1cc(F)c(C2(OCC(=O)O)COC2)cc1F [Compound 135, 2-[3-[2,5-difluoro-4-[[(3S,6R)-3-methyl-1,1-dioxo-6-phenyl-thiazinan-2-yl]methyl]phenyl]oxetan-3-yl]oxyacetic acid]
10 | 111 | C[C@H]1CC[C@H](c2ccccc2)S(=O)(=O)N1Cc1ccc(C2(C(=O)NCCS(C)(=O)=O)CCOCC2)cc1F [Compound 60, 4-[3-fluoro-4-[[(3S,6R)-3-methyl-1,1-dioxo-6-phenyl-thiazinan-2-yl]methyl]phenyl]-N-(2-methylsulfonylethyl)tetrahydropyran-4-carboxamide]
11 | 630 | COC(=O)[C@]1(c2ccc(CN3[C@@H](C)CC[C@H](c4ccccc4)S3(=O)=O)cc2)CC[C@@H](n2cnnc2)CC1 [Example 12, 1-[4-((3S,6R)-3-Methyl-1,1-dioxo-6-phenyl-[1,2]thiazinan-2-ylmethyl)-phenyl]-4-[1,2,4]triazol-4-yl-cyclohexanecarboxylic acid methyl ester]
12 | 110 | C[C@H]1CC[C@H](c2ccccc2)S(=O)(=O)N1Cc1ccc([C@]2(C#N)CC[C@@H](n3cnnc3)CC2)cc1F [Example 20, 1-[3-Fluoro-4-((3S,6R)-3-methyl-1,1-dioxo-6-phenyl-[1,2]thiazinan-2-ylmethyl)-phenyl]-4-[1,2,4]triazol-4-yl-cyclohexanecarbonitrile]
13 | 9 | C[C@H]1CC[C@H](c2ccccc2)S(=O)(=O)N1Cc1cc(F)c(C2(CO)CCOCC2)cc1F [Compound 101, [4-[2,5-difluoro-4-[[(3S,6R)-3-methyl-1,1-dioxo-6-phenyl-thiazinan-2-yl]methyl]phenyl]tetrahydropyran-4-yl]methanol]
14 | 36 | C[C@H](O)CNC(=O)C1(c2ccc(CN3[C@@H](C)CC[C@H](c4ccccc4)S3(=O)=O)c(F)c2)CCOCC1 [Compound 63, 4-[3-fluoro-4-[[(3S,6R)-3-methyl-1,1-dioxo-6-phenyl-thiazinan-2-yl]methyl]phenyl]-N-[(2S)-2-hydroxypropyl]tetrahydropyran-4-carboxamide]
15 | 268 | C[C@H]1CC[C@H](c2ccccc2)S(=O)(=O)N1Cc1ccc(C2(C(=O)NCC(N)=O)CCOCC2)cc1F [Compound 59, N-(2-amino-2-oxo-ethyl)-4-[3-fluoro-4-[[(3S,6R)-3-methyl-1,1-dioxo-6-phenyl-thiazinan-2-yl]methyl]phenyl]tetrahydropyran-4-carboxamide]
16 | 1080 | C[C@H]1CC[C@H](c2ccccc2)S(=O)(=O)N1Cc1ccc(C2(C(N)=O)CC2)cc1F [Compound 196, 1-[3-fluoro-4-[[(3S,6R)-3-methyl-1,1-dioxo-6-phenyl-thiazinan-2-yl]methyl]phenyl]cyclopropanecarboxamide]
17 | 7.8 | C[C@H]1CC[C@H](c2ccccc2)S(=O)(=O)N1Cc1ccc(C2(CCC#N)CCOCC2)cc1F [Compound 86, 3-[4-[3-fluoro-4-[[(3S,6R)-3-methyl-1,1-dioxo-6-phenyl-thiazinan-2-yl]methyl]phenyl]tetrahydropyran-4-yl]propanenitrile]
18 | 38.5 | C[C@H]1CC[C@H](c2ccccc2)S(=O)(=O)N1Cc1ccc(C2(CO)CCOCC2)cc1F [Compound 68, [4-[3-fluoro-4-[[(3S,6R)-3-methyl-1,1-dioxo-6-phenyl-thiazinan-2-yl]methyl]phenyl]tetrahydropyran-4-yl]methanol]
19 | 74 | C[C@H]1CC[C@H](c2ccccc2)S(=O)(=O)N1Cc1ccc(C2(NCCCO)CCOCC2)cc1F [Compound 187, 3-[[4-[3-fluoro-4-[[(3S,6R)-3-methyl-1,1-dioxo-6-phenyl-thiazinan-2-yl]methyl]phenyl]tetrahydropyran-4-yl]amino]propan-1-ol]
20 | 60.3 | C[C@H]1CC[C@H](c2ccccc2)S(=O)(=O)N1Cc1ccc(C2(CCO)COC2)cc1F [Compound 158]
21 | 4.9 | CC(=O)N1CC(OCC(N)=O)(c2cc(F)c(CN3[C@@H](C)CC[C@H](c4ccccc4)S3(=O)=O)cc2F)C1 [Compound 175, 2-[1-acetyl-3-[2,5-difluoro-4-[[(3S,6R)-3-methyl-1,1-dioxo-6-phenyl-thiazinan-2-yl]methyl]phenyl]azetidin-3-yl]oxyacetamide]
22 | 360 | COC(=O)[C@]1(c2ccc(CN3[C@@H](C)CC[C@H](c4ccccc4)S3(=O)=O)cc2)CC[C@H](n2cnnc2)CC1 [Example 17, 1-[4-((3S,6R)-3-Methyl-1,1-dioxo-6-phenyl-[1,2]thiazinan-2-ylmethyl)-phenyl]-4-[1,2,4]triazol-4-yl-cyclohexanecarboxylic acid methyl ester]
23 | 23.7 | COC1(OC)CC(C(N)=O)(c2ccc(CN3[C@@H](C)CC[C@H](c4ccccc4)S3(=O)=O)c(F)c2)C1 [Compound 181, 1-[3-fluoro-4-[[(3S,6R)-3-methyl-1,1-dioxo-6-phenyl-thiazinan-2-yl]methyl]phenyl]-3,3-dimethoxy-cyclobutanecarboxamide]
24 | 32.5 | C[C@H]1CC[C@H](c2ccccc2)S(=O)(=O)N1Cc1cc(F)c(C2(CCC(=O)N(C)C)CC2)cc1F [Compound 147, 3-[1-[2,5-difluoro-4-[[(3S,6R)-3-methyl-1,1-dioxo-6-phenyl-thiazinan-2-yl]methyl]phenyl]cyclopropyl]-N,N-dimethyl-propanamide]
25 | 37.9 | CC(OC1(c2ccc(CN3[C@@H](C)CC[C@H](c4ccccc4)S3(=O)=O)c(F)c2)CCOCC1)C(N)=O (stereo partly drawn) [Compound 174, 2-[4-[3-fluoro-4-[[(3S,6R)-3-methyl-1,1-dioxo-6-phenyl-thiazinan-2-yl]methyl]phenyl]tetrahydropyran-4-yl]oxypropanamide]
26 | 11.7 | C[C@H]1CC[C@H](c2ccccc2)S(=O)(=O)N1Cc1cc(F)c(C2(OCC(O)CO)CCOCC2)cc1F (stereo in doubt) [Compound 170, (2S)-3-[4-[2,5-difluoro-4-[[(3S,6R)-3-methyl-1,1-dioxo-6-phenyl-thiazinan-2-yl]methyl]phenyl]tetrahydropyran-4-yl]oxypropane-1,2-diol]
27 | 20.8 | CC(=O)N1CCC(OCC(O)CO)(c2cc(F)c(CN3[C@@H](C)CC[C@H](c4ccccc4)S3(=O)=O)cc2F)CC1 (stereo in doubt) [Compound 169, 1-[4-[2,5-difluoro-4-[[(3S,6R)-3-methyl-1,1-dioxo-6-phenyl-thiazinan-2-yl]methyl]phenyl]-4-[(2R)-2,3-dihydroxypropoxy]-1-piperidyl]ethanone]
28 | 120 | CC(=O)N1CCC(O)(c2ccc(CN3[C@@H](C)CCC(c4ccccc4)S3(=O)=O)cc2)CC1 (stereo partly drawn) [Compound 49, 1-{4-Hydroxy-4-[4-((S)-3-methyl-1,1-dioxo-6-phenyl-[1,2]thiazinan-2-ylmethyl)-phenyl]-piperidin-1-yl}-ethanone]
29 | 2.65 | C[C@H]1CC[C@H](c2ccccc2)S(=O)(=O)N1Cc1cc(F)c(C2(O)COC2)cc1F [Compound 192, 3-[2,5-difluoro-4-[[(3S,6R)-3-methyl-1,1-dioxo-6-phenyl-thiazinan-2-yl]methyl]phenyl]oxetan-3-ol]

Reference: patent publication US10131644B2, “Aryl sultam derivatives as RORc modulators” (Genentech, Inc., priority 2014, dated 2018)
